Source: ChEMBL document CHEMBL1201862, “PubChem BioAssay data set” (2004)
Activity calls are given as the source filed them.

Columns and labels:
Cytochrome P450 3A4 = Cytochrome P450 3A4 (Homo sapiens, UniProt P08684);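 further: CYP3A4 tested as one member of a cytochrome P450 panel screen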
Estrogen receptor beta = Estrogen receptor beta (Homo sapiens, UniProt Q92731);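 further: recombinant ER-beta bound to coactivator SRC1 peptide in presence of estradiol agonist; inhibitors block coactivator peptide binding and lower the FRET signal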
Estrogen receptor beta, sequence (Q92731 whole entry): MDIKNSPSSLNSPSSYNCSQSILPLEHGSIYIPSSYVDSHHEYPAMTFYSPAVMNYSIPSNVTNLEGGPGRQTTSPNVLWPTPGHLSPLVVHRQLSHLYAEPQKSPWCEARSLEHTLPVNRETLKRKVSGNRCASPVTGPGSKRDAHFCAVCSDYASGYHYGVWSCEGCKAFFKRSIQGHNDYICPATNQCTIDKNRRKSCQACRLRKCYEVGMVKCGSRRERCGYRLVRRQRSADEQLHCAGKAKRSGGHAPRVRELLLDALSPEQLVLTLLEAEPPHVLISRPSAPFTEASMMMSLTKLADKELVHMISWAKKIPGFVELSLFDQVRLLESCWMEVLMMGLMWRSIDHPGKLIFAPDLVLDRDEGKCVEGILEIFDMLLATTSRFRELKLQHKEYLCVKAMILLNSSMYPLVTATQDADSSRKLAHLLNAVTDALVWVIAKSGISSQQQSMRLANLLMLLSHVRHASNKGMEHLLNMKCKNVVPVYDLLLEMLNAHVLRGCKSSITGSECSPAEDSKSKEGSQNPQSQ

[1] = inhibitors of intracellular T. cruzi replication, confirmation, NIH3T3 host cells, beta-gal luminescence (AID 2044); assay type: functional, cell-based;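 further: intracellular parasites grown in NIH/3T3 mouse fibroblasts as host cells; luminescent beta-galactosidase reporter signal from transgenic T. cruzi replicating inside host cells; inhibitors lower the luminescence signal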
[2] = cytotoxicity toward NIH3T3 fibroblasts, dose response, counter-screen, cell-based, ATP luminescence, mouse fibroblasts (AID 2010); assay type: functional;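 further: cells exposed to compound for about 90 hours before reading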
[3] = biological target: DNA dC->dU-editing enzyme APOBEC-3G (Homo sapiens, UniProt Q9HC16); assay: Dose Response confirmation of small molecule APOBEC3G DNA Deaminase Inhibitors via a fluorescence-based single-stranded DNA deaminase assay. [Related pubchem assays (depositor defined):AID493012, AID493028]; assay type: functional
Fatty acid synthase [4] = biological target: T1, Fatty acid synthase (Homo sapiens, UniProt P49327); assay: FAS thioesterase domain inhibitors, dose response, biochemical, kinetic fluorescence intensity (AID 624326); assay type: functional;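 further: rate of fluorescence rise from hydrolysis of a fluorogenic O-methyl fluorescein ester substrate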
T1 sequence (P49327 whole entry, the tested form may be a part): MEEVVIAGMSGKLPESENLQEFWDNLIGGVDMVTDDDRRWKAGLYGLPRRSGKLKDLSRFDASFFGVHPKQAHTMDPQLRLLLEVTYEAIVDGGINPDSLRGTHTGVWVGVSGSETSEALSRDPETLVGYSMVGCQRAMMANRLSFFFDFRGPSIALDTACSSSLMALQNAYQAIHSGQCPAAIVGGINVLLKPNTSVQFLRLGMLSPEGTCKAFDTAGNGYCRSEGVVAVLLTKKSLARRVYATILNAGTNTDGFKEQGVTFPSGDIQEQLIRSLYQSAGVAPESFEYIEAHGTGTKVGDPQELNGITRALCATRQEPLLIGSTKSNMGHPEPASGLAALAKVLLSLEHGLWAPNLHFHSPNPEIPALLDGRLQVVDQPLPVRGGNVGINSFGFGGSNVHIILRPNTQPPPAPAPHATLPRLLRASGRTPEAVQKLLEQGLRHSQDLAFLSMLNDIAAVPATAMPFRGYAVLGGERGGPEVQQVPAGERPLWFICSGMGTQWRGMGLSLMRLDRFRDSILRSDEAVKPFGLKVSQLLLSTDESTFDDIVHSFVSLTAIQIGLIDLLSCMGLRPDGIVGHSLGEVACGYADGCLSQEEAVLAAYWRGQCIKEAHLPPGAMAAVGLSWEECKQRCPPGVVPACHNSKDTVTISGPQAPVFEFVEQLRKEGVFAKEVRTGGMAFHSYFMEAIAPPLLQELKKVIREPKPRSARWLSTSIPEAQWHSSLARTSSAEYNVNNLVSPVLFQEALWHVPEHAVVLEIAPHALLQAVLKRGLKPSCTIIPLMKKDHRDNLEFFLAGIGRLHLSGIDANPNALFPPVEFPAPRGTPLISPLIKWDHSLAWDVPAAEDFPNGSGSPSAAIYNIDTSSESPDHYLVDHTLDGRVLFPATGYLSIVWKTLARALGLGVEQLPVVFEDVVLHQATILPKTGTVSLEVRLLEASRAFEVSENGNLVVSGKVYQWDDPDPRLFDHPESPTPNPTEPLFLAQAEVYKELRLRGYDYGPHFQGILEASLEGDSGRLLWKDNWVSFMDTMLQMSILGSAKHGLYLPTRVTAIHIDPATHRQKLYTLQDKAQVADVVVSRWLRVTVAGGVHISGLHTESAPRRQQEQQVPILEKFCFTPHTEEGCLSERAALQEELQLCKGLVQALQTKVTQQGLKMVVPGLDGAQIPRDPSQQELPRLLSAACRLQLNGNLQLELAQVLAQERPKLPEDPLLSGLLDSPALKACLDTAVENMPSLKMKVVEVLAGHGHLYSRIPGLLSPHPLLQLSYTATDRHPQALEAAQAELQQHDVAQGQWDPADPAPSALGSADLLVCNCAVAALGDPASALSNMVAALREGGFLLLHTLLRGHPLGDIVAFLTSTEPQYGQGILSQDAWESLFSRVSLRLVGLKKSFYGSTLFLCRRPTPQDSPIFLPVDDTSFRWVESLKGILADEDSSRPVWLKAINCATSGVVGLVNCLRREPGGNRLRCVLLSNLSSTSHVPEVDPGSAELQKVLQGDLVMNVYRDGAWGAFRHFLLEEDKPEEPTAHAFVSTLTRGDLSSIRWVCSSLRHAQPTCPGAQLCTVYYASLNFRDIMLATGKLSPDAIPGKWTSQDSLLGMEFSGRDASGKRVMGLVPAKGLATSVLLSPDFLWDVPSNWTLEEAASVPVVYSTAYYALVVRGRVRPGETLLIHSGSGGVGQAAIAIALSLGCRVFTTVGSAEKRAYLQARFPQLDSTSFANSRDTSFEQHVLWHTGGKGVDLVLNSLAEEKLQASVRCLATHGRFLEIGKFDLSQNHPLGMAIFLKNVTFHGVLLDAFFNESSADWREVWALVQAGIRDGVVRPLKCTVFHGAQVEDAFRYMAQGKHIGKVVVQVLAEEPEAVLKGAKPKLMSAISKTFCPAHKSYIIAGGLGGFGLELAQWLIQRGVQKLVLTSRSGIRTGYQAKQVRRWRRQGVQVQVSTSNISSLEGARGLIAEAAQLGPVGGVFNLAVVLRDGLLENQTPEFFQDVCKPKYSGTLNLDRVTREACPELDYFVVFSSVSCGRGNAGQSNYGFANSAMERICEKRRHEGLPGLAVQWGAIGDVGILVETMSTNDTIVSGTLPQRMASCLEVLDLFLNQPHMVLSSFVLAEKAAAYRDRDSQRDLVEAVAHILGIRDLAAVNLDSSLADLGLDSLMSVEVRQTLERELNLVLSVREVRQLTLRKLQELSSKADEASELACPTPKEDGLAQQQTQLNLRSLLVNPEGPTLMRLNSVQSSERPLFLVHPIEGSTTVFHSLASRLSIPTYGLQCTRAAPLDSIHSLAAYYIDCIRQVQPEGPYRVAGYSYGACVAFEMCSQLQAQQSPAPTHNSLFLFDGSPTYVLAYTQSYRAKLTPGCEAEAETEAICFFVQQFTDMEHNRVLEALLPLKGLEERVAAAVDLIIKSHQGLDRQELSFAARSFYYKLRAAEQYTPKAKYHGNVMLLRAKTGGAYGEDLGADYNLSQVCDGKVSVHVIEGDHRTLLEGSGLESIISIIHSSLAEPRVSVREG

Fatty acid synthase [5] = biological target: T1, Fatty acid synthase; assay: FAS thioesterase domain inhibitors, dose response, biochemical, endpoint fluorescence intensity, uHTS hits (AID 624327); assay type: functional;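 further: fluorescence from hydrolysis of an O-methyl fluorescein acyl ester substrate by the enzyme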
[6] = biological target: Eukaryotic translation initiation factor 4E (Mus musculus, UniProt P63073); assay: eIF4E–eIF4G protein interaction inhibitors, dose response, biochemical, TR-FRET (AID 855); assay type: functional;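 further: potency for disrupting eIF4E binding to eIF4GI seen as loss of FRET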
cells = assay type: functional
H9c2 = assay: cells; assay type: functional, cell-based; details: Rattus norvegicus, H9c2, Myocardium;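 further: confirmatory concentration-response retest of ultra-high-throughput screening hits for modulation of myocardial damage; cell death induced by hydrogen peroxide oxidative stress; compound pretreatment for 60 min then peroxide exposure for 2 h; potency is for protecting the cells against peroxide damage rather than for killing them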
[7] = growth suppression of beta-catenin-knockout colon cells, dose response, cell-based, HCT116, human colon tumor (AID 1045); assay type: functional;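 further: HCT116 colon tumor cells with beta catenin knocked out; cells exposed to compound for 60 hours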
[8] = growth suppression of PTEN-null colon cells, dose response, cell-based, HCT116 PTEN knockout (AID 1047); assay type: functional;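 further: HCT116 colon tumor cells with PTEN knocked out; cells exposed to compound for 60 hours before readout; potency for loss of cell viability measured by luminescence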
[9] = biological target: T2, Zinc finger protein mex-5 (Caenorhabditis elegans, UniProt Q9XUB2); assay: MEX-5/TCR-2 RNA interaction inhibitors, dose response, biochemical, C. elegans, fluorescence polarization (AID 1960)
T2 sequence (Q9XUB2 whole entry): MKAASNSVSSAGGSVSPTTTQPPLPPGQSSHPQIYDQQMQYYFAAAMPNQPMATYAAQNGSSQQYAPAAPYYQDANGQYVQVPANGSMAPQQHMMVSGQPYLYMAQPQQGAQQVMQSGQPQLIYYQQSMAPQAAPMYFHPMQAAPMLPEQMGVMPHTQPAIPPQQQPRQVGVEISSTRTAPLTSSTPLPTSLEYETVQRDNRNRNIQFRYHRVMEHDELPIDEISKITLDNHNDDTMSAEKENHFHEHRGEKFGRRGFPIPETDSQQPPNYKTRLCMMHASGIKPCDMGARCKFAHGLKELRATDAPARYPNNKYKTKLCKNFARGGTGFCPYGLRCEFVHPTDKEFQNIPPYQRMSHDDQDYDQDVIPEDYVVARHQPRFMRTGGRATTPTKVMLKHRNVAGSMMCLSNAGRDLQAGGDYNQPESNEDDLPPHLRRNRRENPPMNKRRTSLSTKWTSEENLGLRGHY

[10] = biological target: T3, RNA-binding protein pos-1 (Caenorhabditis elegans, UniProt G5EF15); assay: inhibitors of POS-1/mex-3 RNA binding, dose response, biochemical, fluorescence polarization (AID 1964);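 further: purified POS-1 fused to maltose binding protein made in E. coli; potency of compounds blocking POS-1 binding to fluorescent RNA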
T3 sequence (G5EF15 whole entry): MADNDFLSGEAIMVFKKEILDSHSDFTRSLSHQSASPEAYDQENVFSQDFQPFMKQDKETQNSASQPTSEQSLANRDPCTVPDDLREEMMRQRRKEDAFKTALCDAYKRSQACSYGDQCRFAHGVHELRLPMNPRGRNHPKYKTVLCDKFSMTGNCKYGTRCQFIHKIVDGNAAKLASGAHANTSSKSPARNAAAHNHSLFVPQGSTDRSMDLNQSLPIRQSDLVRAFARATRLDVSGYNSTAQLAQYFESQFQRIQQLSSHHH

[11] = biological target: Luciferin 4-monooxygenase (Photinus pyralis, UniProt P08659); assay: firefly luciferase enzyme inhibitors, dose response, biochemical, luminescence (AID 1891)
[12] = Luminescence Cell-Based Dose Confirmation HTS to Identify Inhibitors of Platelet Dense Granule Release. [Related pubchem assays: 1663 (Primary HTS), 1678 (Summary of Project)]; assay type: functional
Prothrombin = Prothrombin (Bos taurus, UniProt P00735); assay: thrombin inhibition, dose response, biochemical, fluorescence polarization, uHTS hits (AID 602369); assay type: functional
[13] = biological target: T4, Corticotropin-releasing factor receptor 2/Corticotropin-releasing factor-binding protein (Homo sapiens, UniProt P24387+Q13324); assay: activators of CRF receptor 2 with binding protein – uHTS hits, confirmation (AID 602473); assay type: functional; details: read-out: EC50_Mean
T4 sequence (Q13324 whole entry): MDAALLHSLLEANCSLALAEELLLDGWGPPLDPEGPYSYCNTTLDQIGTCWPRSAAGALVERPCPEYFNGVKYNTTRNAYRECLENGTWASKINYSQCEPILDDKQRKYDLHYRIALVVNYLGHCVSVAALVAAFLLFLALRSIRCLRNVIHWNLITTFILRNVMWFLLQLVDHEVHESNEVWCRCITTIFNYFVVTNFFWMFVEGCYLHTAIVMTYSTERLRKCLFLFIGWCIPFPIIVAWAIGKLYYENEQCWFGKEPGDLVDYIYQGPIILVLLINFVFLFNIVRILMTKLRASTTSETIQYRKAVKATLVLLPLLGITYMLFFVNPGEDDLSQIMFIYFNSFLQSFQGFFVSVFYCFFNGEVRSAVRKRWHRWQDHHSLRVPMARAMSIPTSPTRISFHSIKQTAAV
T4 sequence (P24387 whole entry): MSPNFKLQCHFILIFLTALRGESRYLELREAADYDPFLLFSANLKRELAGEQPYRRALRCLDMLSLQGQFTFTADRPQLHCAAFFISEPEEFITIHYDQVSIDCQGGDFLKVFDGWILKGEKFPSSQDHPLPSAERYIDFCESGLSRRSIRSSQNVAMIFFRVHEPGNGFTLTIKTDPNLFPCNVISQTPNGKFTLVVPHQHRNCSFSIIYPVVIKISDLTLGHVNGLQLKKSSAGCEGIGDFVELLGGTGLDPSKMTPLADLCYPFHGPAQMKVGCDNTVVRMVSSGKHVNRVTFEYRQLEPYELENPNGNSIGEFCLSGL

[14] = biological target: 72 kDa type IV collagenase (Homo sapiens, UniProt P08253); assay: Dose Response validation of uHTS RPN11 inhibitor hits using a MMP-2 Fluorescence assay.; assay type: functional
72 kDa type IV collagenase, sequence (P08253 whole entry): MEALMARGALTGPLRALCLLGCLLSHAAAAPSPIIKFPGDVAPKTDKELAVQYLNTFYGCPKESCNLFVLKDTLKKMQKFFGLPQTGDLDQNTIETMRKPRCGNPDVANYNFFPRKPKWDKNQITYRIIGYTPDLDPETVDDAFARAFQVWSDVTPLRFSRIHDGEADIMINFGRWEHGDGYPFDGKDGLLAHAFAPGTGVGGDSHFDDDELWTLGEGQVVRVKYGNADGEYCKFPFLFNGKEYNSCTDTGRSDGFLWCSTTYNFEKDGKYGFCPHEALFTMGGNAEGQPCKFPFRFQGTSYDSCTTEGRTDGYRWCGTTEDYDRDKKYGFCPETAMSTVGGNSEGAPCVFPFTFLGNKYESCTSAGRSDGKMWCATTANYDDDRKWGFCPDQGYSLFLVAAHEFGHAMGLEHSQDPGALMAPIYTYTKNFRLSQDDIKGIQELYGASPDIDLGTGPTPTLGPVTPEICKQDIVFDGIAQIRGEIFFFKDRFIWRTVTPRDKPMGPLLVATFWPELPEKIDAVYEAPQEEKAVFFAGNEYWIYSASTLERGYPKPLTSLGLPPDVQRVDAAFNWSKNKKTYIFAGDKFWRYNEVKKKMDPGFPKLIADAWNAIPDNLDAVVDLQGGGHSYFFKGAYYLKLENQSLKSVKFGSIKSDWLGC

[15] = biological target: 26S proteasome non-ATPase regulatory subunit 14 (Homo sapiens, UniProt O00487); assay: inhibition of proteasome subunit RPN11 – biochemical, fluorescence polarization, uHTS hits, confirmation (AID 602368); assay type: functional
26S proteasome non-ATPase regulatory subunit 14, sequence (O00487 whole entry): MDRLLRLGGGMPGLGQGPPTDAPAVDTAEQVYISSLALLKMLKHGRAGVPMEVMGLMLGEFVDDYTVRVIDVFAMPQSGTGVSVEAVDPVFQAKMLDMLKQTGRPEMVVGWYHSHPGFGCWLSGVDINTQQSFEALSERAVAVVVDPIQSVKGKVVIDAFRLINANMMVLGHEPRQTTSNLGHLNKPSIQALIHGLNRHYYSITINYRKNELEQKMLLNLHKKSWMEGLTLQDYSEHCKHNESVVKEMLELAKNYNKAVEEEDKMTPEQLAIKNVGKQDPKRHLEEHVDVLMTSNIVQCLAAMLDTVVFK

Cytochrome P450 1A2 = biological target: T5, Cytochrome P450 1A2 (Homo sapiens, UniProt P05177);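 further: PubChem cytochrome P450 panel assay, CYP1A2 panel member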
T5 sequence (P05177 whole entry): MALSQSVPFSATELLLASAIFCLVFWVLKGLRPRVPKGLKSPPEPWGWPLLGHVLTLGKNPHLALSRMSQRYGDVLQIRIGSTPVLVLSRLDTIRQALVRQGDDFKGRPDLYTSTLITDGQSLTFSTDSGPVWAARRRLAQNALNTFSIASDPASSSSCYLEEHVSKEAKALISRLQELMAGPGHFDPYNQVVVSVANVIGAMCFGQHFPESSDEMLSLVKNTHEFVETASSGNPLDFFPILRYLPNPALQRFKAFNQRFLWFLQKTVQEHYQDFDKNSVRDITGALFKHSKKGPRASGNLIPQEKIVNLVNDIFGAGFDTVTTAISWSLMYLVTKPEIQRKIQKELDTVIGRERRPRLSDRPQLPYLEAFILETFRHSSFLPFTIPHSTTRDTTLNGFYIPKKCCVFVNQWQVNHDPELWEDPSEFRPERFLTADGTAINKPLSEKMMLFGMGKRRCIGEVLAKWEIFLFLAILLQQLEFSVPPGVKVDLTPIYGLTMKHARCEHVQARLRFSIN

Cytochrome P450 2C19 = Cytochrome P450 2C19 (Homo sapiens, UniProt P33261); assay: Cytochrome panel assay with activity outcomes. Panel member name: p450-cyp2c19 Compounds with AC50 equal or less than 10 uM are considered active; assay type: functional; details: read-out: AC50
Cytochrome P450 2C9 = Cytochrome P450 2C9 (Homo sapiens, UniProt P11712)
Paired box protein Pax-8 = Paired box protein Pax-8 (Homo sapiens, UniProt Q06710); assay: inhibitors of PAX8-driven TPO luciferase reporter, dose response, RMG-I cells, cherry-pick (AID 687027); assay type: functional, cell-based;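 further: luciferase reporter driven by Pax8 target thyroperoxidase promoter measured by SteadyGlo luminescence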
Paired box protein Pax-8, sequence (Q06710 whole entry): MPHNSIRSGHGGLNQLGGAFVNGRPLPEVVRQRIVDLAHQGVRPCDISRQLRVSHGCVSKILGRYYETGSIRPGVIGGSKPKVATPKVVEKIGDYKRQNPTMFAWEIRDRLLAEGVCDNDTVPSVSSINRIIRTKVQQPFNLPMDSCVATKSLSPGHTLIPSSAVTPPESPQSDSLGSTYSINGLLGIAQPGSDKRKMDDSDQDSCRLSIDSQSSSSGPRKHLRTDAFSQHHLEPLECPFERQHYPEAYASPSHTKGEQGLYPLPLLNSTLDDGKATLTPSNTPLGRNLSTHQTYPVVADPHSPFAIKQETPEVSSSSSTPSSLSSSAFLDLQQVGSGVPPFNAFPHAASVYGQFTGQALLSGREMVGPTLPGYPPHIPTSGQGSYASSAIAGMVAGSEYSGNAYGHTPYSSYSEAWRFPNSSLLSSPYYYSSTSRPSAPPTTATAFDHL

[16] = cytotoxicity in OVCAR8 ovarian cancer cells, dose response, PAX8 project, cell-based, plate reader, dry powder samples (AID 743197); assay type: functional; details: OVCAR-8

Cytochrome P450 3A4, sequence (P08684 whole entry): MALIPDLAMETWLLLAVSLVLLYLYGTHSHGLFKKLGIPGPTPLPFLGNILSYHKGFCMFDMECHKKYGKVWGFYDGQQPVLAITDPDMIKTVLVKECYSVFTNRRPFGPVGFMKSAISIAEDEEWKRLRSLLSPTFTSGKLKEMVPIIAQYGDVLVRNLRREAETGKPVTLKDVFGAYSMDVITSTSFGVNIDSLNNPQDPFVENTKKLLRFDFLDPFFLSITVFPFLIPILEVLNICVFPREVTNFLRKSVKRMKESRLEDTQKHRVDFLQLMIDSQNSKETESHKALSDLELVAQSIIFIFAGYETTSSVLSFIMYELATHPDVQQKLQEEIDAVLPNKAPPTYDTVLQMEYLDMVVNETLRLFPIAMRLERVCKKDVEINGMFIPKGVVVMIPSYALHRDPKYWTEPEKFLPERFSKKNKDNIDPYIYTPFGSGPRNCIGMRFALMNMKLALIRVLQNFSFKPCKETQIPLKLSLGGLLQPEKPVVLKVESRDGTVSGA

O=C(c1ccco1)N1CCC2(CCN(Cc3ccccc3)CC2)CC1
AC50 (Cytochrome P450 3A4): inconclusive

CCOc1ccccc1C(=O)N1CCN=C1SC
IC50 (Estrogen receptor beta): > 50 µM (not active)

COc1ccccc1NS(=O)(=O)c1cc(NC(=O)C2CCC2)ccc1N1CCCCC1
EC50 [1]: 2.44 µM (active)
EC50 [2]: > 30 µM (not active)
IC50 [3]: 46.8 µM (active)

O=C(O)CCCNc1c(C(=O)Nc2ccc(Cl)cc2)cc([N+](=O)[O-])cc1[N+](=O)[O-]
IC50 (Fatty acid synthase [4]): 4.79 µM (active)
IC50 (Fatty acid synthase [5]): 5.31 µM (active)

C=CCn1c(-c2cc(OC)c(OC)c(OC)c2)n[nH]c1=S
IC50 [6]: > 64 µM (inactive)

O=C(COC(=O)c1ccc([N+](=O)[O-])s1)Nc1ccc(Cl)cn1
IC50 (cells): 8.49 µM (active)
IC50 (H9c2): 22.2 µM (active)

CCOC(=O)CNC(=O)C(Cc1ccccc1)NS(=O)(=O)c1ccc2c(c1)CCC(=O)N2 (stereo not given)
IC50 (Estrogen receptor beta): > 50 µM (not active)

COCCNC(=O)CCCn1c(=O)c2ccccc2n(Cc2cccc([N+](=O)[O-])c2)c1=O
IC50 (Fatty acid synthase [4]): 15.8 µM (active)
IC50 (Fatty acid synthase [5]): 11.6 µM (active)

CCN1C2=C(C(=O)CCC2)C(c2ccc(O)c(Br)c2)C2=C1CCCC2=O
IC50 (Estrogen receptor beta): > 50 µM (not active)

O=C(Nc1nc(-c2cc(Cl)sc2Cl)cs1)c1ccc(Br)s1
EC50 [7]: 20.2 µM (active)
EC50 [8]: 17.1 µM (active)

O=C(NCCCCc1ccccc1)C1CC(c2ccc([N+](=O)[O-])cc2)=NO1 (stereo not given)
IC50 (Fatty acid synthase [4]): 14.1 µM (active)
IC50 (Fatty acid synthase [5]): 13.6 µM (active)

O=C(c1ccco1)N1CCC2(CCN(Cc3nccs3)CC2)CC1
AC50 (Cytochrome P450 3A4): inconclusive

Cc1ccc(-c2nc3cc(C(N)=O)ccc3c(O)c2O)cc1
EC50 [9]: 8.44 µM (inconclusive)
IC50 (H9c2): 11.3 µM (active)
EC50 [10]: 7.27 µM (active)

COC(=O)C1(C(F)(F)F)N=C2Sc3ccccc3N2C(N2CCOCC2)=N1 (stereo not given)
EC50 [7]: 21.7 µM (active)
EC50 [11]: > 112 µM (not active)
EC50 [8]: 23.9 µM (active)
EC50 [12]: > 112 µM (not active)

Nc1ccc(/C=C/C(=O)c2ccco2)cc1
IC50 (Prothrombin): 27.5 µM (active)
EC50 [13]: 7.4 µM (active)
IC50 [14]: > 100 µM (inactive)
IC50 [15]: 18 µM (active)

Cc1ccc(C(=O)ON=C2CCN(S(=O)(=O)c3ccccc3)CC2)cc1
AC50 (Cytochrome P450 3A4): inconclusive
AC50 (Cytochrome P450 1A2): 28.2 µM (inconclusive)
AC50 (Cytochrome P450 2C19): 5.01 µM (inconclusive)

Cc1oc(-c2ccc(Cl)cc2)nc1CN1CCC(C(=O)N2CCc3ccccc3C2)CC1
EC50 [7]: 14.7 µM (active)
EC50 [8]: 16.5 µM (active)

Oc1nc(CSc2nnc(-c3cccnc3)n2C2CCCCC2)nc2ccccc12
IC50 (H9c2): 22.1 µM (active)

CC(C)(C)c1ccc(C(=O)NC(Cc2ccccc2)C(=O)O)cc1 (stereo not given)
AC50 (Cytochrome P450 3A4): inconclusive
AC50 (Cytochrome P450 2C9): 25.1 µM (inconclusive)
AC50 (Cytochrome P450 2C19): 22.4 µM (inconclusive)

C[C@H](CO)N1C[C@H](C)[C@@H](CN(C)C(=O)NC2CCCCC2)Oc2c(NC(=O)Nc3ccc4c(c3)OCO4)cccc2C1=O
IC50 (Fatty acid synthase [4]): 4.32 µM (active)
IC50 (Fatty acid synthase [5]): 1.66 µM (active)

CCOc1ccc(Cl)cc1CNCCNCC(C)O.Cl (stereo not given)
AC50 (Cytochrome P450 3A4): inconclusive

C=CCCC(=O)N1C[C@H]2CON(C)[C@H]2C[C@H]1c1ccc(N2CCCCC2)cc1
IC50 (Prothrombin): 57.2 µM (active)
IC50 [14]: > 100 µM (inactive)
IC50 [15]: 52.2 µM (active)

O=CNc1cc(-c2ccc(C(=O)NC3CC3)cc2)cn2c(-c3ccc(F)c(Cl)c3)cnc12
IC50 (H9c2): > 79 µM (inactive)

COc1cc(CN2c3ccccc3C(=O)CS2(=O)=O)cc(OC)c1
IC50 (Prothrombin): > 100 µM (inactive)
IC50 [14]: > 100 µM (inactive)
IC50 [15]: > 100 µM (inactive)

O=C(Nc1cccc(F)c1)N1CCCCN2[C@@H](CO)[C@@H](c3ccc(-c4ccncc4)cc3)[C@@H]2C1
AC50 (Paired box protein Pax-8): 32.2 µM (active)
AC50 [16]: > 70 µM (inactive)

CCCC#Cc1ccc([C@H]2[C@H]3CN(S(=O)(=O)Cc4ccccc4)CCCCN3[C@H]2CO)cc1
AC50 (Paired box protein Pax-8): 10.9 µM (active)
AC50 [16]: 60.2 µM (active)

CN1c2ccc(-c3ccccc3)cc2[C@@H]2[C@@H](CCN2C(=O)NC2CCCCC2)[C@@H]1CO
AC50 (Paired box protein Pax-8): 11.1 µM (active)
AC50 [16]: 49.6 µM (active)

O=S1(=O)CC/C(=N/Nc2ccc(C(F)(F)F)cn2)c2cc(F)ccc21
IC50 [6]: 50 µM (inactive)

COc1ccc(NC(=O)Cn2c(-c3ccc(OC)cc3)cn(-c3ccc(C)cc3)c2=O)cc1
IC50 (Prothrombin): 48.5 µM (active)
IC50 [14]: > 100 µM (inactive)
IC50 [15]: 35.2 µM (active)

O=C(O)CC(O)C(=O)O (stereo not given) [MALIC ACID]
AC50 (Cytochrome P450 3A4): inconclusive
